Test results taken from US8008306B2, “Quinoline compounds” (Kowa Company, Ltd., priority 2008, dated 2011).

How the values were obtained:
LXRβ (versus LXRα) = target: T1, LXRβ (versus LXRα) (Homo sapiens, UniProt P55055); conditions: from Hu et al., Bioorg. Med. Chem. Lett., 18, pp. 54-59, 2008; cited from earlier work
T1 sequence (P55055 1-460): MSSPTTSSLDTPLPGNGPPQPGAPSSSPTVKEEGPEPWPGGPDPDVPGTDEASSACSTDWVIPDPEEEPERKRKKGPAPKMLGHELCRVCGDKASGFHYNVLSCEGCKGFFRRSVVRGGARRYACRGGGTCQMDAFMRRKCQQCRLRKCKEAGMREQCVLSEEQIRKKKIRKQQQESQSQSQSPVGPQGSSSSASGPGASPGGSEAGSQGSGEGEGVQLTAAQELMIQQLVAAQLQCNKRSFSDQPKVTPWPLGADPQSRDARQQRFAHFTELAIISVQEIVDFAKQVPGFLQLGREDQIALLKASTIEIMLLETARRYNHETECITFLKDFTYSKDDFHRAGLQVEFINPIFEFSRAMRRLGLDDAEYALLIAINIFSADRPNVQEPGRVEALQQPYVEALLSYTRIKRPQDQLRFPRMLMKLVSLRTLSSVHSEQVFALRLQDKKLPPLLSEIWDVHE

[1] = target: T2, LXRβ/GAL4 hybrid (LBD of human LXRβ), compared with LXRα/GAL4 (Homo sapiens, UniProt P55055); test: Transactivation assay (GAL4-responsive luciferase reporter); assay type: cell-based; conditions: CHOK-1 cells stably expressing LXRα/GAL4 or LXRβ/GAL4 and pG5luc; 0.01-10 μM, 24 hours; % eff relative to T0901317 at 10 μM = 100; data in FIGS. only
T2 construct: expressed in transfected cells; host or cells: CHOK-1 cells stably expressing the hybrid and pG5luc
T2 sequence (P55055 222-460 limits assumed): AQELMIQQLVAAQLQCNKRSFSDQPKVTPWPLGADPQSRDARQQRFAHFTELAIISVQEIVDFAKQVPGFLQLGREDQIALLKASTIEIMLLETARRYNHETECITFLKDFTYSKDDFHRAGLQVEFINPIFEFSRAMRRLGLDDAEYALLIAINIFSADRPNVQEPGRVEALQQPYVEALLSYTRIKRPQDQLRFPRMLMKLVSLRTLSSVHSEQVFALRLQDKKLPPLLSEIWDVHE
Text: The ligand-binding domain (LBD) of a human LXRα and LXRβ cDNA was inserted adjacent to an yeast GAL4-transcription factor DNA-binding domain (DBD) of a mammal expression vector pBIND (Promega) to prepare an expression construct, thereby to produce pBIND-LXRα/GAL4 and pBIND-LXRβ/GAL4, respectively. PG5luc, a GAL4-responsive reporter construct, is a known vector that is available from Promega, and contains 5 copies of GAL4-response element located adjacent to the promoter as well as a luciferase reporter gene.
An LXRα/GAL4 or LXRβ/GAL4 hybrid and GAL4-responsive reporter vector pG5luc-stable-expression CHOK-1 cells were seeded under 5% CO2 wet atmosphere at 37° C., at 20,000 cells/well on a 96-well plate containing HAM-F12 medium containing 10% […] bovine fetal serum, 100 units/ml of penicillin G, and 100 μg/ml of streptomycin sulfate. […] By using Bright-Glo (Promega) as a luciferase assay substrate, and measuring the luminescence intensity with luminometer LB960 (Berthold Technologies), the effect of the test compound on the activation of luciferase transcription via the LXRα- or LXRβ-LBD was measured. At the same time, T0901317 (the compound of Example 12 of WO2000/54759) and WAY-254011 (compound 4 of Hu et al., Bioorg. Med. Chem. Lett., 18, pp. 54-59, 2008) were assessed as comparative compounds. […]

SMILES: O=C(O)Cc1ccc(COc2cccc(-c3c(Cc4ccccc4)cnc4c(C(F)(F)F)cccc34)c2)cc1 [WAY-254011]
- LXRβ-selective binding affinity (α/β ratio) (LXRβ (versus LXRα)): 1 to 5
- LXRβ-selective agonist effect (luciferase activity via LXRα- or LXRβ-LBD) [1]: not found to have an LXRβ-selective agonist effect
